Type in all cases: in vivo
The subject of data set [1] is a range of pests including Musca domestica, Periplaneta Americana, Blatella germanica and others. Kind of data set: Tests of insecticidal activity of p-cymene against a range of pests. The conditions noted are these: 15 listed pest species.
Data set [2] relates to cat flea (Ctenocephalides felis). As to the kind of experiment: Potter tower spray bioassay on adult arthropods, mortality. Particulars: 1.0 ml/pot, adults, room temperature; % of negative control. The procedure:
(§1) The IGR's Methoprene and Diflubenzuron were sources as WHO standard preparations at 20 mg/l technical from WHO, Geneva, and used as positive controls or mixtures (50:50) with 5.0% p-cymene.
(§2) Laboratory colonies of the cat flea (Ctenocephalides felis) and the Deer Tick (Ixodes ricinus) were used in bioassays undertaken at room temperature.
(§3) Bioassays consisted of plastic pots with a netting cover holding batches of 10 adult insects of each species being placed under a potter tower which then sprayed a fine particulate aerosol of even rate. Application rates were always 1.0 ml/pot which is sufficient to wet the inner surface without leaving free liquid residues. After exposure to the treatment or a 5% ethanol control, arthropods were then transferred to a clean plastic holding pot and held at room temperature for 3 days with mortality scored after 24 & 72 hours. Mortality was calculated as % of negative control.

Data set [3] concerns Deer Tick (Ixodes ricinus). Described as above. Particulars: 1.0 ml/pot, adults, room temperature; % of negative control. Here is the method: as §1, §2, §3

For 1 compound, insecticidal activity, 24 hours mortality and 72 hours mortality results are on record in patent publication US20090324509A1, “INSECTICIDAL COMPOSITION” (LIVIE BIOPESTICIDES LIMITED, priority 2006, published 2009).

The structures appear in SMILES notation.

Turning to `Cc1ccc(C(C)C)cc1` [p-cymene], in data set [1], the insecticidal activity entry is “broad spectrum insecticidal activity”. Also, in data set [2], the 24 hours mortality worked out at 76% and the 72 hours mortality was 88%. In data set [3], the 24 hours mortality stood at 28% and the 72 hours mortality turned out to be 55%.
